Laboratory results published in patent publication US10787450B2 (BRISTOL-MYERS SQUIBB COMPANY, priority 2016, dated 2020).
Counter-ions that a name gives are not always drawn.

molecular target: ROCK2 (Homo sapiens (Human), UniProt O75116); assay: ROCK2 kinase inhibition assay (FITC peptide substrate, LABCHIP 3000 Reader); type: biochemical; settings: 5 μM ATP, 1.5 μM peptide substrate
Method: The effectiveness of compounds of the present invention as ROCK inhibitors can be determined in a 30 μL assay containing 20 mM HEPES, pH 7.5, 20 mM MgCl2, 0.015% Brij-35, 4 mM DTT, 5 μM ATP and 1.5 μM peptide substrate (FITC-AHA-AKRRRLSSLRA-OH) (SEQ ID NO. 1). Compounds were dissolved in DMSO so that the final concentration of DMSO was <2%, and the reaction was initiated with Rho kinase variants. After incubation, the reaction was terminated by the addition of EDTA and the phosphorylated and non-phosphorylated peptides separated using a LABCHIP® 3000 Reader (Caliper Life Sciences). […] Compounds were tested in dose-response format, and the inhibition of kinase activity was calculated at each concentration of compound. The inhibition data were fit using a curve-fitting program to determine the IC50; i.e., the concentration of compound required to inhibit 50% of kinase activity.
Representative examples were tested in the ROCK2 assay described above and found having ROCK2 inhibitory activity.

Sequence of ROCK2 (O75116 whole entry, species assumed): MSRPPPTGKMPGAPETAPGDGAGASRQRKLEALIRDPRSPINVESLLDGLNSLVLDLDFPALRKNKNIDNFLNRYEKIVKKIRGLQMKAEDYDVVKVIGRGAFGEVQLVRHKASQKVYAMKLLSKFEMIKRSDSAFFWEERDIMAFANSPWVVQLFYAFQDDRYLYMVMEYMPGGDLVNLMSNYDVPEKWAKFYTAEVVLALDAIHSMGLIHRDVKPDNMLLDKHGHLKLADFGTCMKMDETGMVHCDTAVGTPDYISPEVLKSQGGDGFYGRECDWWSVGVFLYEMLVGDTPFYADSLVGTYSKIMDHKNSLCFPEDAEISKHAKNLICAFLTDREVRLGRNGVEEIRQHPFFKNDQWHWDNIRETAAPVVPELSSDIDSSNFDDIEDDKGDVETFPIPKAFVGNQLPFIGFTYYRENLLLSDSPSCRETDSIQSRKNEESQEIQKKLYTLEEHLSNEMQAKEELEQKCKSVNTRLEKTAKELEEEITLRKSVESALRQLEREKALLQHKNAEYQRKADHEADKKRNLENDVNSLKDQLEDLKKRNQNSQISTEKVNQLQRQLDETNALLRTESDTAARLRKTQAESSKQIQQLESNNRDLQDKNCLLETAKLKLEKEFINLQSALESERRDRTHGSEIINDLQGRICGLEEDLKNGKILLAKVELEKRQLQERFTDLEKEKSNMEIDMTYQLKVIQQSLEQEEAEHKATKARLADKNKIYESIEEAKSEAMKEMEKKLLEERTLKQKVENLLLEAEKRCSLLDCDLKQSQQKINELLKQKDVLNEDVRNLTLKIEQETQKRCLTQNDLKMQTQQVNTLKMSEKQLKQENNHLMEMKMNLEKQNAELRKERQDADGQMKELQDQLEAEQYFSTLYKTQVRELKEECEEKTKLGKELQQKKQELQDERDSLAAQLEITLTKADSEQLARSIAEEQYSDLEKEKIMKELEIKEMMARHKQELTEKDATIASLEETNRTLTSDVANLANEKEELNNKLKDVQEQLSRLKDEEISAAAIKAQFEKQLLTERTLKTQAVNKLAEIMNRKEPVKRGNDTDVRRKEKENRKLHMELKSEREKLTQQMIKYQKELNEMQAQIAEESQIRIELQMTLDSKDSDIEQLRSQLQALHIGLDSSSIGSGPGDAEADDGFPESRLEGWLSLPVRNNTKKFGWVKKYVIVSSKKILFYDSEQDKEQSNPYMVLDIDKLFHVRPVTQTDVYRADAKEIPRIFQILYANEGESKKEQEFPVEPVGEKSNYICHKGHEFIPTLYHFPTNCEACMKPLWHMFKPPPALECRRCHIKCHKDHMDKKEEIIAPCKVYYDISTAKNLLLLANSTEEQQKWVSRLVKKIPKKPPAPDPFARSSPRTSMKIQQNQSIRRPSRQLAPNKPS

Compound | IC50 [nM]
O=C1N(c2ccc(-c3cn[nH]c3)cc2)CC2(CCNCC2)N1CC1CCOCC1 [Example 72, 3-(4-(1H-pyrazol-4-yl)phenyl)-1-((tetrahydro-2H-pyran-4-yl)methyl)-1,3,8-triazaspiro[4.5] decan-2-one] | 250 to 3000
COc1cccc(CN2C(=O)N(c3ccc(-c4cn[nH]c4)cn3)CC23CCNCC3)c1 [Example 73, 3-(5-(1H-pyrazol-4-yl)pyridin-2-yl)-1-(3-methoxybenzyl)-1,3,8-triazaspiro[4.5]decan-2-one] | 3 to 30
COc1cccc(CN2C(=O)N(c3ccc(-c4cn[nH]c4)c(C)n3)CC23CCNCC3)c1 [Example 74, 1-(3-methoxybenzyl)-3-(6-methyl-5-(1H-pyrazol-4-yl)pyridin-2-yl)-1,3,8-triazaspiro[4.5]decan-2-one] | 3 to 30
CCc1nc(N2CC3(CCNCC3)N(Cc3cccc(OC)c3)C2=O)ccc1-c1cn[nH]c1 [Example 75, 3-(6-ethyl-5-(1H-pyrazol-4-yl)pyridin-2-yl)-1-(3-methoxybenzyl)-1,3,8-triazaspiro[4.5]decan-2-one, TFA] | < 3
COc1cccc(CN2C(=O)N(c3ccc(-c4cn[nH]c4)cc3)CC23CCN(C(C)=O)CC3)c1 [Example 76, 3-(4-(1H-pyrazol-4-yl)phenyl)-8-acetyl-1-(3-methoxybenzyl)-1,3,8-triazaspiro[4.5]decan-2-one] | < 3
CC(=O)N1CCC2(CC1)CN(c1ccc(-c3cn[nH]c3)cc1)C(=O)N2Cc1cccc(F)c1F [Example 77, 3-(4-(1H-pyrazol-4-yl)phenyl)-8-acetyl-1-(2,3-difluorobenzyl)-1,3,8-triazaspiro[4.5]decan-2-one] | 30 to 250
CC(=O)N1CCC2(CC1)CN(c1ccc(-c3cn[nH]c3)cc1)C(=O)N2Cc1cc(F)ccc1F [Example 78, 3-(4-(1H-pyrazol-4-yl)phenyl)-8-acetyl-1-(2,5-difluorobenzyl)-1,3,8-triazaspiro[4.5]decan-2-one] | 30 to 250
CC(=O)N1CCC2(CC1)CN(c1ccc(-c3cn[nH]c3)cc1)C(=O)N2CC1CCCCC1 [Example 79, 3-(4-(1H-pyrazol-4-yl)phenyl)-8-acetyl-1-(cyclohexylmethyl)-1,3,8-triazaspiro[4.5]decan-2-one] | 30 to 250
CC(=O)N1CCC2(CC1)CN(c1ccc(-c3cn[nH]c3)cc1)C(=O)N2Cc1ccc(F)cc1C [Example 80, 3-(4-(1H-pyrazol-4-yl)phenyl)-8-acetyl-1-(4-fluoro-2-methylbenzyl)-1,3,8-triazaspiro[4.5]decan-2-one] | 3 to 30
CC(=O)N1CCC2(CC1)CN(c1ccc(-c3cn[nH]c3)cc1)C(=O)N2Cc1ccc(F)cc1F [Example 81, 3-(4-(1H-pyrazol-4-yl)phenyl)-8-acetyl-1-(2,4-difluorobenzyl)-1,3,8-triazaspiro[4.5]decan-2-one] | 30 to 250
CC(=O)N1CCC2(CC1)CN(c1ccc(-c3cn[nH]c3)cc1)C(=O)N2Cc1cccc(F)c1C [Example 82, 3-(4-(1H-pyrazol-4-yl)phenyl)-8-acetyl-1-(3-fluoro-2-methylbenzyl)-1,3,8-triazaspiro[4.5]decan-2-one] | 3 to 30
CC(=O)N1CCC2(CC1)CN(c1ccc(-c3cn[nH]c3)cc1)C(=O)N2Cc1cc(F)ccc1C [Example 83, 3-(4-(1H-pyrazol-4-yl)phenyl)-8-acetyl-1-(5-fluoro-2-methylbenzyl)-1,3,8-triazaspiro[4.5]decan-2-one] | 3 to 30
COc1cccc(CN2C(=O)N(c3ccc(-c4cn[nH]c4)cn3)CC23CCN(C(C)=O)CC3)c1 [Example 84, 3-(5-(1H-pyrazol-4-yl)pyridin-2-yl)-8-acetyl-1-(3-methoxybenzyl)-1,3,8-triazaspiro[4.5]decan-2-one] | < 3
COc1cccc(CN2C(=O)N(c3ccc(-c4cn[nH]c4)c(OC)n3)CC23CCN(C(C)=O)CC3)c1 [Example 85, 8-acetyl-3-(6-methoxy-5-(1H-pyrazol-4-yl)pyridin-2-yl)-1-(3-methoxybenzyl)-1,3,8-triazaspiro[4.5]decan-2-one] | < 3
COc1nc(N2CC3(CCN(C(C)=O)CC3)N(Cc3cccc(F)c3C)C2=O)ccc1-c1cn[nH]c1 [Example 86, 8-acetyl-1-(3-fluoro-2-methylbenzyl)-3-(6-methoxy-5-(1H-pyrazol-4-yl)pyridin-2-yl)-1,3,8-triazaspiro[4.5]decan-2-one] | < 3
CCc1nc(N2CC3(CCN(C(C)=O)CC3)N(Cc3cccc(F)c3C)C2=O)ccc1-c1cn[nH]c1 [Example 87, 8-acetyl-3-(6-ethyl-5-(1H-pyrazol-4-yl)pyridin-2-yl)-1-(3-fluoro-2-methylbenzyl)-1,3,8-triazaspiro[4.5]decan-2-one] | < 3

Compound | IC50 [nM]
CCc1nc(N2CC3(CCN(C(C)=O)CC3)N(Cc3cccc(OC)c3)C2=O)ccc1-c1cn[nH]c1 [Example 88, 8-acetyl-3-(6-ethyl-5-(1H-pyrazol-4-yl)pyridin-2-yl)-1-(3-methoxybenzyl)-1,3,8-triazaspiro[4.5]decan-2-one] | < 3
CCc1nc(N2CC3(CCN(C(C)=O)CC3)N(Cc3cc(F)cc(OC)c3)C2=O)ccc1-c1cn[nH]c1 [Example 89, 8-acetyl-3-(6-ethyl-5-(1H-pyrazol-4-yl)pyridin-2-yl)-1-(3-fluoro-5-methoxybenzyl)-1,3,8-triazaspiro[4.5]decan-2-one] | < 3
COc1cccc(CN2C(=O)N(c3ncc(-c4cn[nH]c4)c(OC)n3)CC23CCN(C(C)=O)CC3)c1 [Example 90, 8-acetyl-3-(4-methoxy-5-(1H-pyrazol-4-yl)pyrimidin-2-yl)-1-(3-methoxybenzyl)-1,3,8-triazaspiro[4.5]decan-2-one] | 3 to 30
CNC(=O)N1CCC2(CC1)CN(c1ccc(-c3cn[nH]c3)cc1)C(=O)N2Cc1cccc(OC)c1 [Example 91, 3-(4-(1H-pyrazol-4-yl)phenyl)-1-(3-methoxybenzyl)-N-methyl-2-oxo-1,3,8-triazaspiro[4.5]decane-8-carboxamide] | < 3
COc1cccc(CN2C(=O)N(c3ccc(-c4cn[nH]c4)cc3)CC23CCN(C(N)=O)CC3)c1 [Example 92, 3-(4-(1H-pyrazol-4-yl)phenyl)-1-(3-methoxybenzyl)-2-oxo-1,3,8-triazaspiro[4.5]decane-8-carboxamide] | < 3
COc1cccc(CN2C(=O)N(c3ccc(-c4cn[nH]c4)cc3)CC23CCN(C(=O)N(C)C)CC3)c1 [Example 93, 3-(4-(1H-pyrazol-4-yl)phenyl)-1-(3-methoxybenzyl)-N,N-dimethyl-2-oxo-1,3,8-triazaspiro[4.5]decane-8-carboxamide] | < 3
COC(=O)N1CCC2(CC1)CN(c1ccc(-c3cn[nH]c3)cc1)C(=O)N2Cc1cccc(OC)c1 [Example 94, Methyl 3-(4-(1H-pyrazol-4-yl)phenyl)-1-(3-methoxybenzyl)-2-oxo-1,3,8-triazaspiro[4.5]decane-8-carboxylate] | < 3
COc1cccc(CN2C(=O)N(c3ccc(-c4cn[nH]c4)cc3)CC23CCN(C(=O)OCC(C)C)CC3)c1 [Example 95, isobutyl 3-(4-(1H-pyrazol-4-yl)phenyl)-1-(3-methoxybenzyl)-2-oxo-1,3,8-triazaspiro[4.5]decane-8-carboxylate] | < 3
CCOC(=O)N1CCC2(CC1)CN(c1ccc(-c3cn[nH]c3)cc1)C(=O)N2Cc1cccc(OC)c1 [Example 96, ethyl 3-(4-(1H-pyrazol-4-yl)phenyl)-1-(3-methoxybenzyl)-2-oxo-1,3,8-triazaspiro[4.5]decane-8-carboxylate] | < 3
COc1cccc(CN2C(=O)N(c3ccc(-c4cn[nH]c4)cc3)CC23CCN(C(=O)OCC(C)(C)C)CC3)c1 [Example 97, neopentyl 3-(4-(1H-pyrazol-4-yl)phenyl)-1-(3-methoxybenzy1)-2-oxo-1,3,8-triazaspiro[4.5]decane-8-carboxylate] | 3 to 30
COCCOC(=O)N1CCC2(CC1)CN(c1ccc(-c3cn[nH]c3)cc1)C(=O)N2Cc1cccc(OC)c1 [Example 98, 2-methoxyethyl 3-(4-(1H-pyrazol-4-yl)phenyl)-1-(3-methoxybenzyl)-2-oxo-1,3,8-triazaspiro[4.5]decane-8-carboxylate] | < 3
COc1cccc(CN2C(=O)N(c3ccc(-c4cn[nH]c4)cc3)CC23CCN(C(=O)OC(C)C)CC3)c1 [Example 99, isopropyl 3-(4-(1H-pyrazol-4-yl)phenyl)-1-(3-methoxybenzyl)-2-oxo-1,3,8-triazaspiro[4.5]decane-8-carboxylate] | < 3
CCCOC(=O)N1CCC2(CC1)CN(c1ccc(-c3cn[nH]c3)cc1)C(=O)N2Cc1cccc(OC)c1 [Example 100, propyl 3-(4-(1H-pyrazol-4-yl)phenyl)-1-(3-methoxybenzyl)-2-oxo-1,3,8-triazaspiro[4.5]decane-8-carboxylate] | < 3
COc1cccc(CN2C(=O)N(c3ccc(-c4cn[nH]c4)cc3)CC23CCN(C(=O)OCCOCc2ccccc2)CC3)c1 [Example 101, 2-(benzyloxy)ethyl 3-(4-(1H-pyrazol-4-yl)phenyl)-1-(3-methoxybenzyl)-2-oxo-1,3,8-triazaspiro[4.5]decane-8-carboxylate] | 3 to 30
COC(=O)N1CCC2(CC1)CN(c1ccc(-c3cn[nH]c3)c(OC)n1)C(=O)N2Cc1cccc(OC)c1 [Example 102, methyl 3-(6-methoxy-5-(1H-pyrazol-4-yl)pyridin-2-yl)-1-(3-methoxybenzyl)-2-oxo-1,3,8-triazaspiro[4.5]decane-8-carboxylate] | < 3
